Key:
S. aureus (gram +) [1] = assay: change in optical density with tetrazolium salt MTT (Example 5), S. aureus; type: cell-based, Staphylococcus aureus (ATCC 25923); details: 540 nm, 37° C., without antibiotic 0.505
Method: (§1) gram-negative bacteria Enterobacter cloacae (ATCC 23355), Escherichia coli (ATCC 25922), Proteus vulgaris (ATCC 13315), Klebsiella pneumoniae (ATCC 13883) and Pseudomonas aeruginosa (ATCC 27853), and gram-positive bacteria Staphylococcus aureus (ATCC 25923) and Streptococcus pyogenes (ATCC 19615), and brain heart infusion (BHI) broth from Difco Laboratories (Detroit, Mich.),
(§2) Bacterial suspensions were prepared by growing the cells in BHI to stationary phase overnight at 37° C. P. aeruginosa was grown with agitation. About 40 ml of overnight cultures were centrifuged, decanted and washed once with 0.05 molar potassium phosphate buffer or 0.05 molar N-2-hydroxyethylpiperazine-N'-2-ethanesulfonic acid (HEPES) buffer, pH 7.8, and resuspended in buffer.
The reducible compound solution was prepared with 3-(4,5-dimethyl-2-thiazolyl)-2,5-diphenyl-2H-tetrazolium bromide (MTT) (200 μl of 5 mg/ml methanol), 200 μl glucose solution (10% in water), 200 μl trimethyl-1,4-benzoquinone ETA (1.5 mg/ml methanol) and 12 ml of HEPES buffer (0.05 molar, pH 7.8).
Test solutions were prepared with the following: 50 μl HEPES buffer, 50 μl polyether antibiotic A23187 (free acid, 0.01 molar in methanol), 10 μl calcium chloride (1 molar) (serial dilutions of buffer and antibiotic were performed to obtain various antibiotic concentrations), 50 μl of the appropriate cell suspension, E. coli (about 10^8 cells/ml) or S. aureus (about 10^8 cells/ml), and 200 μl of the MTT solution. Control solutions were prepared as described in previous Examples.
Optical density measurements were obtained at 540 nm using a standard spectrophotometer and the change in optical density (ΔOD) was determined after 30 minutes at 37° C. The resulting data are shown in Table VII below for several concentrations of antibiotic. It is clear from the data that the composition of this example was useful for differentiating bacteria.

E. coli = assay: dye formation from RIND VII in presence of calimycin, E. coli; type: cell-based, Escherichia coli (ATCC 25922); parameters: key: 0: no dye formation; +/-: faint dye formation; 1+: light dye formation; 2+: moderate dye formation; 3+: strong dye formation; 4+: very strong dye formation; details: calimycin 10^-3 molar, calcium chloride
Method: as §1
(§3) Bacterial suspensions were prepared by growing the cells in BHI to stationary phase overnight at 37° C. P. aeruginosa was grown with agitation. […]
(§4) TERGITOL 7 anionic surfactant was used to differentiate viable bacteria according to the prior art method. […] The amount of dye formed was then determined visually and graded as follows: 0 indicates no dye formation, +/- indicates faint dye formation, 1+ indicates light dye formation, 2+ indicates moderate dye formation, 3+ indicates strong dye formation, and 4+ indicates very strong dye formation.
(§5) Calimycin, a polyether antibiotic, was similarly used with RIND VII in the differentiation of bacteria. Assays were performed as described above, except that 25 μl of 1 molar calcium chloride solution was added to each test solution and the P. aeruginosa response was measured in the presence of 10% yeast extract as the carbon source instead of glucose. […]

P. vulgaris = assay: dye formation from RIND VII in presence of calimycin, P. vulgaris; type: cell-based, Proteus vulgaris (ATCC 13315); parameters: key: 0: no dye formation; +/-: faint dye formation; 1+: light dye formation; 2+: moderate dye formation; 3+: strong dye formation; 4+: very strong dye formation; details: calimycin 10^-3 molar, calcium chloride
Method: as §1, §3, §4, §5

S. aureus (gram +) [2] = assay: change in relative fluorescence with water-compatible RIND XXXV (Example 4), S. aureus; type: cell-based, Staphylococcus aureus (ATCC 25923); details: 37° C., without antibiotic 2667
Method: as §1, §2
A dispersion containing a RIND compound was prepared by dissolving RIND VII from Table II above in N,N-dimethylformamide (DMF) at 16 mg compound per ml of solvent. An aliquot (250 μl) of the resulting solution was added to 500 μl of TRITON X-100 surfactant. This mixture was then added dropwise with stirring to 25 ml of 0.05 molar HEPES buffer. A solution containing a water-compatible RIND compound XXXV was prepared by dissolving the compound (16 mg/ml) in N,N-dimethylformamide which had been acidified with a 0.1% sulfuric acid solution.
A solution was prepared from the following components: 100 μl RIND XXXV solution (16 mg/ml acidified N,N-dimethylformamide), 200 μl glucose solution (10% in water), 200 μl trimethyl-1,4-benzoquinone ETA solution (1.5 mg/ml methanol) and 10 ml HEPES buffer.
Test solutions were prepared from the following reagents: 50 μl HEPES buffer, 50 μl polyether antibiotic A23187 (free acid, 0.01 molar in methanol), 10 μl calcium chloride solution (1 molar) (serial dilutions of buffer and antibiotic were performed to obtain various antibiotic concentrations), 50 μl of the appropriate cell suspensions (E. coli, about 10^8 cells/ml and S. aureus, about 10^8 cells/ml) and 200 μl of the RIND solution. Control solutions were prepared as described in Examples 2 and 3.
Relative fluorescence was measured using a standard spectrophotometer modified to read at excitation of 540 nm and emission of 620 nm. The change (Δ) in relative fluorescence was determined after 30 minutes at 37° C. for several concentration levels of antibiotic.

CNc1ccc2oc(C[C@H]3O[C@@]4(CC[C@H]3C)O[C@H]([C@H](C)C(=O)c3ccc[nH]3)[C@H](C)C[C@H]4C)nc2c1C(=O)O [calimycin, Calimycin]
Δ OD after 30 Min. (S. aureus (gram +) [1]; antibiotic 1 × 10^-4 molar): 0.089 | Δ OD after 30 Min. (S. aureus (gram +) [1]; antibiotic 2 × 10^-4 molar): 0.096 | Δ OD after 30 Min. (S. aureus (gram +) [1]; antibiotic 4 × 10^-4 molar): 0.065 | Δ OD after 30 Min. (S. aureus (gram +) [1]; antibiotic 8 × 10^-4 molar): 0.028 | dye formation (E. coli; 15 Minutes): 3+ | dye formation (E. coli; 30 Minutes): 4+ | dye formation (P. vulgaris; 15 Minutes): 4+ | dye formation (P. vulgaris; 30 Minutes): 4+ | Δ Relative Fluorescence after 30 Min. (S. aureus (gram +) [2]; antibiotic 1 × 10^-4 molar): 409 | Δ Relative Fluorescence after 30 Min. (S. aureus (gram +) [2]; antibiotic 2 × 10^-4 molar): 362 | Δ Relative Fluorescence after 30 Min. (S. aureus (gram +) [2]; antibiotic 4 × 10^-4 molar): 290 | Δ Relative Fluorescence after 30 Min. (S. aureus (gram +) [2]; antibiotic 8 × 10^-4 molar): 345
